Assay results published in US20180221487A1, “NOVEL PROTEIN TRANSFECTION COMPOSITIONS AND USES THEREOF” (Chang Gung Memorial Hospital, Linkou, priority 2017, published 2018).
“Also recorded” adds a separate entry of the source.

Key:
[1] = system: breast cancer cells (BRCA009); assay: Alexa Fluor 488 anti-mouse IgG transfection, immunofluorescent staining; assay type: cell-based, human; settings: after 6 hours of incubation
Description: (§1) Immunofluorescent staining procedure: After protein transfection is completed, the cells in the culture dish were washed three times with phosphate buffered saline (PBS) and fixed with 4% paraformaldehyde for 20 min. The cells were washed again with PBS, perforated with 0.1% Triton X-100 for 5 min, and blocked with 10% BSA for 30 min. For Alexa Fluor 488 anti-mouse IgGs, cells were stained with DAPI for 10 min. For B23, histone 1 or GAPDH antibody transfection, cells were stained with Alexa Fluor 488 or 546 anti-mouse IgG antibodies for 30 min and then stained with DAPI. For […]1 proteins or Flag-Rev peptides transfection, cells were stained with anti-v5 or anti-flag antibodies, respectively, and then stained with Alexa Fluor 488 anti-mouse IgG and DAPI. All images were detected by confocal microscopes (Leica, Wetzlar, Germany). The fluorescent signals were analyzed and quantified by Q-Win software (Leica, Wetzlar, Germany). FIG. 1 schematically illustrates the protein transfection procedure. Briefly, the protein of interest and a protein transfection composition, such as HEPES buffer, were mixed and incubated for about 15 min to about 30 min to form a mixture (Panel A). […] The protein transfection efficiency can be analyzed using immunofluorescent staining or flow cytometry (Panel D). […] The protein transfection efficiency was assessed by flow cytometry or confocal microscope.

[2] = system: breast cancer cells (BRCA011); assay: as above; assay type: cell-based, human; settings: after 24 hours of incubation
Description: as §1

endometrial cancer cells = assay: Cytotoxicity of HEPES buffer concentrations (MTT and LDH assay); assay type: cell-based, human; settings: Opti-MEM and HEPES buffer 0-200 mM, 24 h
Description: (§2) MTT and LDH assay: In MTT assay, the cells were incubated for 24 h and then centrifuged at 1500 rpm for 5 min. The supernatants were discarded and attached cells were analyzed by MTT reagent (Promega Corporation, Wisconsin, US). In LDH assay, the cells were incubated for […] and then centrifuged at 1500 rpm for 5 min. The supernatants were collected and analyzed by LDH reagent (Sigma, St. Louis, Mo., USA). The cell viability (MTT assay) and cytotoxicity (LDH assay) were assayed following the manufacturer's protocol. The MTT and LDH signals were detected by ELISA Reader (Tecan Systems, Inc., San Jose, Calif., USA).
(§3) The cytotoxicity of various HEPES buffer concentrations was evaluated. Human ovarian cancer cells and endometrial cancer cells were incubated in Opti-MEM and HEPES buffer (0-200 mM) for 24 h. Cell viability and cytotoxicity were analyzed by MTT and LDH assay, respectively.

[3] = system: human ovarian cancer cells; assay: as above; assay type: cell-based; settings: Opti-MEM and HEPES buffer 0-200 mM, 24 h
Description: as §2, §3

[4] = system: human ovarian cancer cells (MDAH2774); assay: Protein transfection, immunofluorescent staining / confocal microscopy; assay type: cell-based
Description: Immunofluorescent staining procedure: After protein transfection is completed, the cells in the culture dish were washed three times with phosphate buffered saline (PBS) and fixed with 4% paraformaldehyde for 20 min. The cells were washed again with PBS, perforated with 0.1% Triton X-100 for 5 min, and blocked with 10% BSA for 30 min. For Alexa Fluor 488 anti-mouse IgGs, cells were stained with DAPI for 10 min. For B23, histone 1 or GAPDH antibody transfection, cells were stained with Alexa Fluor 488 or 546 anti-mouse IgG antibodies for 30 min and then stained with DAPI. For rhSTIP1 proteins or Flag-Rev peptides transfection, cells were stained with anti-v5 or anti-flag antibodies, respectively, and then stained with Alexa Fluor 488 anti-mouse IgG and DAPI. All images were detected by confocal microscopes (Leica, Wetzlar, Germany). The fluorescent signals were analyzed and quantified by Q-Win software (Leica, Wetzlar, Germany).
FIG. 1 schematically illustrates the protein transfection procedure. Briefly, the protein of interest and a protein transfection composition, such as HEPES buffer, were mixed and incubated for about 15 min to about 30 min to form a mixture (Panel A). Cells to be transfected were replaced in a minimal essential medium (Panel B). The mixture in Panel A was added to the cells in Panel B and incubated at 37° C. for about 4 to about 24 hours (Panel C). The protein transfection efficiency can be analyzed using immunofluorescent staining or flow cytometry (Panel D).
An in vitro evaluation of the optimal protein transfection condition was performed. According to the steps in FIG. 1. rhSTIP1 was incubated with HEPES buffers of different concentrations (5 or 20 mM) or Opti-MEM (control) at room temperature for about 15 minutes to form the protein mixtures to transfect human ovarian cancer cells. The mixtures were added to the cell culture dish comprising Opti-MEM and incubated at 37° C. for about 4 to about 24 hours.
Different amounts of Alexa Fluor® 488 anti-mouse IgG (0, 2, 4, 8, or 16 μg) were incubated with 20 mM HEPES buffer and mixed with ovarian (MDAH2774) cancer cells in Opti-MEM.
Alexa Fluor 488 anti-mouse IgG antibodies were mixed with 20 mM HEPES to form a mixture. […] Protein transfection efficiency was assessed using confocal fluorescent microscope.
The following proteins were incubated with Opti-MEM (control group) or 20-30 mM HEPES buffer to transfect ovarian cancer cells (MDAH2774 or MOSEC) or endometrial cancer cells: Alexa Fluor 488-conjugated, anti-mouse IgG antibody (about 150 kDa), anti-B23 antibody, anti-histone 1 antibody, anti-STIP1 antibody, rhSTIP1 protein (62.6 kDa), Flag-Rev peptide (<5 kDa) and FITC-Rev peptide (<5 kDa). […] Protein transfection efficiency was assessed by staining the transfected cancer cells with Alexa Fluor 488 or 594 anti-mouse IgG antibodies (for Alexa Fluor 488-conjugated anti-mouse IgG antibody, anti-B23 antibody, anti-histone 1 antibody, anti-STIP1 antibody), v5 antibody (for rhSTIP1), or anti-Flag antibody (for Flag-Rev peptide), and fluorescent signals were analyzed with confocal microscopy.
The protein transfection efficiency of HEPES was compared to other commercial reagents, such as PULsin™, ProteoJuice™, Pro-Ject™, Xfect™, and BioPORTER®. […] The transfected ovarian cancer cells were stained with Alexa Fluor 488 anti-mouse IgG antibodies and protein transfection efficiency was assessed by confocal fluorescent microscopy.

colon cancer = assay: Alexa Fluor 488 anti-mouse IgG transfection, immunofluorescent staining; assay type: cell-based; settings: HEPES buffer 20 mM-40 mM
Description: (§4) Immunofluorescent staining procedure: After protein transfection is completed, the cells in the culture dish were washed three times with phosphate buffered saline (PBS) and fixed with 4% paraformaldehyde for 20 min. The cells were washed again with PBS, perforated with 0.1% Triton X-100 for 5 min, and blocked with 10% BSA for 30 min. For Alexa Fluor 488 anti-mouse IgGs, cells were stained with DAPI for 10 min. For B23, histone 1 or GAPDH antibody transfection, cells were stained with Alexa Fluor 488 or 546 anti-mouse IgG antibodies for 30 min and then stained with DAPI. For […]1 proteins or Flag-Rev peptides transfection, cells were stained with anti-v5 or anti-flag antibodies, respectively, and then stained with Alexa Fluor 488 anti-mouse IgG and DAPI. All images were detected by confocal microscopes (Leica, Wetzlar, Germany). The fluorescent signals were analyzed and quantified by Q-Win software (Leica, Wetzlar, Germany). FIG. 1 schematically illustrates the protein transfection procedure. Briefly, the protein of interest and a protein transfection composition, such as HEPES buffer, were mixed and incubated for about 15 min to about 30 min to form a mixture (Panel A). Cells to be transfected were replaced in a minimal essential medium (Panel B). The mixture in Panel A was added to the cells in Panel B and incubated at 37° C. for about 4 to about 24 hours (Panel C). The protein transfection efficiency can be analyzed using immunofluorescent staining or flow cytometry (Panel D). Alexa Fluor 488 anti-mouse IgG or […]1 were incubated with Opti-MEM (the control group) or HEPES buffer (20 mM-40 mM) to transfect the following cancer cells according to the steps in Example 1: human cervical cancer cells, human breast cancer cells (MCF7, BRCA009 or BRCA011), human endometrial cancer cells, lung adenocarcinoma cells, human pancreatic cancer cells, hepatocellular carcinoma cells, scarcoma cells, renal cell carcinoma cells, lymphoma cells, nasopharyngeal carcinoma cells, brain tumor cells, colon cancer cells, and leukemic cells. The protein transfection efficiency was assessed by flow cytometry or confocal microscope.

renal cell carcinoma = assay: as above; assay type: cell-based; settings: HEPES buffer 20 mM-40 mM
Description: as §4

nasopharyngeal carcinoma = assay: as above; assay type: cell-based; settings: HEPES buffer 20 mM-40 mM
Description: as §4

scarcoma cells = assay: as above; assay type: cell-based; settings: HEPES buffer 20 mM-40 mM
Description: as §4

leukemia cells = assay: as above; assay type: cell-based; settings: HEPES buffer 20 mM-40 mM
Description: as §4

non Hodgkin's lymphoma = assay: as above; assay type: cell-based; settings: HEPES buffer 20 mM-40 mM
Description: as §4

brain tumor = assay: as above; assay type: cell-based; settings: HEPES buffer 20 mM-40 mM
Description: as §4

[5] = system: human ovarian cancer cells; assay: HEPES-mediated protein transfection pathway with endocytic inhibitors; assay type: cell-based; settings: pretreatment 30 min: 0.2-0.4 M sucrose, 5 μg/ml filipin or 0.0125-0.25 mM amiloride; 20 mM HEPES; after 4 hours and 24 hours
Description: Immunofluorescent staining procedure: After protein transfection is completed, the cells in the culture dish were washed three times with phosphate buffered saline (PBS) and fixed with 4% paraformaldehyde for 20 min. The cells were washed again with PBS, perforated with 0.1% Triton X-100 for 5 min, and blocked with 10% BSA for 30 min. For Alexa Fluor 488 anti-mouse IgGs, cells were stained with DAPI for 10 min. For B23, histone 1 or GAPDH antibody transfection, cells were stained with Alexa Fluor 488 or 546 anti-mouse IgG antibodies for 30 min and then stained with DAPI. For […]1 proteins or Flag-Rev peptides transfection, cells were stained with anti-v5 or anti-flag antibodies, respectively, and then stained with Alexa Fluor 488 anti-mouse IgG and DAPI. All images were detected by confocal microscopes (Leica, Wetzlar, Germany). The fluorescent signals were analyzed and quantified by Q-Win software (Leica, Wetzlar, Germany). An in vitro evaluation of HEPES-mediated protein transfection pathway was performed using the following endocytic inhibitors: sucrose (a clathrin-mediated endocytic inhibitor), filipin (a caveolae-mediated endocytic inhibitor) and amiloride (a macropinocytic inhibitor). Human ovarian cancer cells were pretreated with Opti-MEM (the control group), 0.2-0.4 M sucrose, 5 μg/ml filipin or 0.0125-0.25 mM amiloride for 30 min, followed by the transfection of Alexa Fluor 488 anti-mouse IgG antibodies using 20 mM HEPES buffer according to the steps in Example 1. The IgG antibody transfection efficiency was assessed by confocal fluorescent microscopy. […] The fluorescent signals of IgG were quantified by Q-Win software, expressed as a relative ratio in FIGS. 12C and 12D (error bars indicate s.e.m. (n=3) and asterisk denotes significant difference, P<0.001). […] The HEPES mediated protein transfection is induced by at least one of the following pathways: clathrin-mediated or caveolae-mediated endocytosis, or macropinocytosis.

O=S(=O)(O)CCN1CCN(CCO)CC1 [HEPES buffer, 4-(2-hydroxyethyl)-1-piperazineethanesulfonic acid]
Alexa Fluor 488 anti-mouse IgG signal using HEPES buffer compared to Opti-MEM [1]: increased | Alexa Fluor 488 anti-mouse IgG signal using HEPES buffer compared to Opti-MEM [2]: increased | HEPES buffer concentration at which cell growth was inhibited (endometrial cancer cells): 50 mM | HEPES buffer concentration at which cell growth was inhibited [3]: 50 mM | transfection of Alexa Fluor 488 anti-mouse IgG antibody in the cytoplasm compared to control group (Opti-MEM) ([4]; 20-30 mM HEPES buffer, confocal microscopy): increased | IgG transfection efficiency compared to commercial protein transfection reagents ([4]; anti-GAPDH antibody, HEPES buffer 20 mM vs PULSin, ProteoJuice, Pro-Ject, Xfect, BioPorter): comparable | protein transfection efficiency, second incubation time 24 hours compared to 4 hours ([4]; rhSTIP1, 5 mM HEPES buffer): improved | protein transfection efficiency as a function of HEPES concentration ([4]; rhSTIP1 incubated with HEPES about 15 min, cells in Opti-MEM 4 to 24 hours): increases with a higher HEPES concentration; also recorded: does not increase further with HEPES concentration higher than 30 to 50 mM | Alexa Fluor 488 anti-mouse IgG signal using HEPES buffer compared to Opti-MEM (colon cancer): increased | Alexa Fluor 488 anti-mouse IgG signal using HEPES buffer compared to Opti-MEM (renal cell carcinoma): increased | Alexa Fluor 488 anti-mouse IgG signal using HEPES buffer compared to Opti-MEM (nasopharyngeal carcinoma): increased | Alexa Fluor 488 anti-mouse IgG signal using HEPES buffer compared to Opti-MEM (scarcoma cells): increased | Alexa Fluor 488 anti-mouse IgG signal using HEPES buffer compared to Opti-MEM (leukemia cells): increased | Alexa Fluor 488 anti-mouse IgG signal using HEPES buffer compared to Opti-MEM (non Hodgkin's lymphoma): increased | Alexa Fluor 488 anti-mouse IgG signal using HEPES buffer compared to Opti-MEM (brain tumor): increased

N=C(N)NC(=O)c1nc(Cl)c(N)nc1N [amiloride]
effect on HEPES-mediated IgG transfection [5]: reduced

CCCCC[C@@H](O)[C@H]1C(=O)O[C@H](C)[C@@H](O)/C=C/C=C/C=C/C=C/C=C(\C)[C@@H](O)C[C@H](O)C[C@H](O)C[C@H](O)C[C@H](O)C[C@H](O)C[C@@H]1O [filipin]
effect on HEPES-mediated IgG transfection [5]: reduced

OC[C@H]1O[C@@](CO)(O[C@H]2O[C@H](CO)[C@@H](O)[C@H](O)[C@H]2O)[C@@H](O)[C@@H]1O [sucrose]
effect on HEPES-mediated IgG transfection [5]: reduced
